Laboratory results: patent publication US4699928A, “Fluoroallylamine derivatives” (Merrell Dow Pharmaceuticals Inc., priority 1986, dated 1987)

Assays:
MAO [1] = assay: Inhibition of MAO in vitro, partially purified rat brain mitochondria, 14C p-tyramine substrate; type: biochemical; conditions: tested as hydrochloride salt
Excerpt: Inhibition of MAO--In vitro testing
(A) The ability of a compound of Formula I to inhibit MAO can be determined in vitro by the method of A. Christmas et al., Br. J. Pharmacol., 45, 490 (1972) in partially purified mitochondria from rat brain using ^14 C p-tyramine as the substrate. The MAO inhibitory activity of a compound is expressed as the "IC50 " value, which is the molar concentration required to produce 50% inhibition of the enzyme.

MAO [2] = assay: Time-dependent kinetics and irreversibility of MAO inhibition, rat brain mitochondria, 14C p-tyramine; type: biochemical
Protocol: (B) The compounds of Formula I can be tested to determine whether or not the MAO inhibition follows time-dependent kinetics by the procedure described below:
(§1) Mitochondria are prepared from rat brain by homogenation in phosphate buffer (0.1 M, pH 7.2) followed by differential centrifugation. The mitochondria are suspended in the same buffer, the test compound is added at the desired concentration, and the system is incubated. At different time intervals, aliquots are taken and MAO activity is measured using ^14 C p-tyramine (a mixed substrate) as the substrate (See A. Christmas et al., supra).

MAO-B versus MAO-A = assay: Selectivity of inhibition of MAO-B versus MAO-A in vitro (14C phenethylamine / 14C 5-hydroxytryptamine); type: biochemical; conditions: rat, brain mitochondria
Protocol: as §1
(C) The selectivity of a compound of Formula I with respect to inhibition of MAO-A and MAO-B can be determined by repeating the procedure of Part B and measuring the MAO activity using ^14 C 5-hydroxytryptamine (a preferred substrate for MAO-A) and ^14 C phenethylamine (a preferred substrate for MAO-B) as the substrate.

MAO-B = assay: Inhibition of MAO ex vivo, phenethylamine as substrate (MAO-B); type: in vivo, male Sprague-Dawley rats; conditions: for % Inhibition, Brain (2) / % Inhibition, Duodenum (2) / % Inhibition, Heart (2) / % Inhibition, Liver (2): 18 h, 14C phenethylamine
Protocol: (§2) The ability of a compound of Formula I to inhibit MAO can be determined ex vivo by the following procedure:
(§3) The test compound is administered orally (p.o.) to 300-350 g male Sprague-Dawley rats (Charles River, France) and the animals are killed 18 hours after treatment. The brain, heart, liver and/or duodenum is removed and either a crude homogenate or a mitochondrial fraction, described in Example 5, Part (A), is prepared. MAO activity is determined in the homogenates using ^14 C p-tyramine, as the substrate. Table III gives the results of the testing of (Z)-2-(2',4'-dichlorophenoxy)methyl-3-fluoroallylamine according to the above described procedure. Selectivity can be determined by repeating the above-described test using either ^14 C […] (for MAO-A) or ^14 C phenethylamine (for MAO-B) as the substrate for determining the percentage inhibition.

MAO-A = assay: Inhibition of MAO-A ex vivo; type: in vivo, male Sprague-Dawley rats; conditions: p.o.; 1080 min
Protocol: as §2, §3

[3] = system: brain monoamines and their metabolites; assay: Inhibition of MAO in vivo: brain monoamines and their metabolites (HPLC); parameters: species or system male Sprague-Dawley rats; conditions: for DOPAC, brain / HVA, brain / 5HIAA, brain / NE, brain / 5-HT, brain / DA (dopamine), brain: 18 h, ± S.E.M.; for DOPAC, brain: control 80 ± 3; for HVA, brain: control 81 ± 3; for 5HIAA, brain: control 347 ± 8; for NE, brain: control 369 ± 18; for 5-HT, brain: control 1156 ± 52; for DA (dopamine), brain: control 840 ± 27
Protocol: The ability of a compound of Formula I to inhibit MAO can be determined in vivo using brain and heart samples obtained from the ex vivo study reported in Example 9. Monoamines and their deaminated metabolites were determined by HPLC with electrochemical detection by the method of J. Wagner et al, J. Neurochem. 38 1241-1254.
When (Z)-2-(2',4'-dichlorophenoxy)methyl-3-fluoroallylamine is tested according to the above-described procedure, the results given in Tables IV and V are obtained. In these tables the following abbreviations are used: […]

[4] = system: heart rate response to p-tyramine; assay: Cheese effect: potentiation of response to intravenous p-tyramine, pithed rats; type: in vivo, male Sprague-Dawley rats; conditions: for Potentiation of heart rate response to p-tyramine: 18 h, p-tyramine i.v.
Protocol: (§4) The following test procedures can be employed to assess the potential of a compound of Formula I for producing the "cheese effect": […]
(§5) Eighteen hours later the animals are anaesthetized with pentobarbitone (60 mg/kg i.p.), in some instances pithed, and in all cases set up for recording heart rate and blood pressure by standard techniques.

[5] = system: heart rate response to p-tyramine; assay: Cheese effect: potentiation of response to intraduodenal p-tyramine, anaesthetized rats; type: in vivo, male Sprague-Dawley rats; conditions: 18 h, p-tyramine i.d.
Protocol: as §4, §5

Compound: NC/C(=C/F)COc1ccc(Cl)cc1Cl [(z)-2-(2',4'-dichlorophenoxy)methyl-3-fluoroallylamine]
- IC50 (MAO [1]): 150 nM
- MAO inhibitory activity versus time of incubation (MAO [2]; 14C p-tyramine): increased as a function of time of incubation
- irreversibility of MAO inhibition (MAO [2]; dialysis against phosphate buffer (24 hours)): irreversible
- initial rate of decrease of activity (MAO [2]; versus concentration of inhibitor): increased with increasing concentration of inhibitor
- Ratio B:A (inhibitory activity against MAO-B versus MAO-A) (MAO-B versus MAO-A): 200
- % Inhibition, Brain (2) (MAO-B; 1 mg/kg po): 85%
- % Inhibition, Duodenum (2) (MAO-B; 1 mg/kg po): 73%
- % Inhibition, Heart (2) (MAO-B; 1 mg/kg po): 40%
- % Inhibition, Liver (2) (MAO-B; 1 mg/kg po): 57%
- % Inhibition, Brain (2) (MAO-B; 2.5 mg/kg po): 90%
- % Inhibition, Duodenum (2) (MAO-B; 2.5 mg/kg po): 82%
- % Inhibition, Heart (2) (MAO-B; 2.5 mg/kg po): 31%
- % Inhibition, Liver (2) (MAO-B; 2.5 mg/kg po): 67%
- % Inhibition, Brain (2) (MAO-B; 5 mg/kg po): 93%
- % Inhibition, Duodenum (2) (MAO-B; 5 mg/kg po): 95%
- % Inhibition, Heart (2) (MAO-B; 5 mg/kg po): 40%
- % Inhibition, Liver (2) (MAO-B; 5 mg/kg po): 89%
- % Inhibition, Brain (2) (MAO-B; 10 mg/kg po): 96%
- % Inhibition, Duodenum (2) (MAO-B; 10 mg/kg po): 96%
- % Inhibition, Heart (2) (MAO-B; 10 mg/kg po): 40%
- % Inhibition, Liver (2) (MAO-B; 10 mg/kg po): 90%
- % Inhibition, Brain (2) (MAO-B; 25 mg/kg po): 98%
- % Inhibition, Duodenum (2) (MAO-B; 25 mg/kg po): 98%
- % Inhibition, Heart (2) (MAO-B; 25 mg/kg po): 64%
- % Inhibition, Liver (2) (MAO-B; 25 mg/kg po): 95%
- preferential inhibition of MAO-B in the four tissues (MAO-B; at the dose levels tested (1-25 mg/kg po)): preferential inhibition of MAO-B
- inhibition of brain MAO-B (MAO-B; doses as low as 1 mg/kg p.o.): greater than 80%
- dose needed to inhibit MAO-A activity by more than 50% (MAO-A): greater than 5 mg/kg
- DOPAC, brain ([3]; 1 mg/kg p.o.): 75 ± 11 ng/g
- HVA, brain ([3]; 1 mg/kg p.o.): 94 ± 15 ng/g
- 5HIAA, brain ([3]; 1 mg/kg p.o.): 371 ± 19 ng/g
- NE, brain ([3]; 1 mg/kg p.o.): 386 ± 18 ng/g
- 5-HT, brain ([3]; 1 mg/kg p.o.): 1218 ± 66 ng/g
- DA (dopamine), brain ([3]; 1 mg/kg p.o., p <0.05): 945 ± 35 ng/g
- DOPAC, brain ([3]; 2.5 mg/kg p.o.): 70 ± 6 ng/g
- HVA, brain ([3]; 2.5 mg/kg p.o.): 75 ± 7 ng/g
- 5HIAA, brain ([3]; 2.5 mg/kg p.o.): 337 ± 15 ng/g
- NE, brain ([3]; 2.5 mg/kg p.o.): 409 ± 4 ng/g
- DA (dopamine), brain ([3]; 2.5 mg/kg p.o.): 896 ± 31 ng/g
- 5-HT, brain ([3]; 2.5 mg/kg p.o.): 1119 ± 64 ng/g
- HVA, brain ([3]; 5 mg/kg p.o.): 83 ± 7.2 ng/g
- NE, brain ([3]; 5 mg/kg p.o.): 415 ± 18 ng/g
- 5-HT, brain ([3]; 5 mg/kg p.o.): 1340 ± 116 ng/g
- DOPAC, brain ([3]; 5 mg/kg p.o., p <0.01): 65 ± 3 ng/g
- DA (dopamine), brain ([3]; 5 mg/kg p.o., p <0.02): 943 ± 21 ng/g
- 5HIAA, brain ([3]; 5 mg/kg p.o., p <0.05): 379 ± 10 ng/g
- 5HIAA, brain ([3]; 10 mg/kg p.o.): 343 ± 14 ng/g
- DA (dopamine), brain ([3]; 10 mg/kg p.o.): 875 ± 16 ng/g
- 5-HT, brain ([3]; 10 mg/kg p.o.): 1297 ± 100 ng/g
- HVA, brain ([3]; 10 mg/kg p.o., p <0.02): 53 ± 10 ng/g
- NE, brain ([3]; 10 mg/kg p.o., p <0.02): 439 ± 15 ng/g
- 5-HT, in words ([3]; 25 mg/kg dose): Significant increases
- HVA, brain ([3]; 25 mg/kg p.o.): 75 ± 8 ng/g
- NE, brain ([3]; 25 mg/kg p.o., p <0.001): 496 ± 12 ng/g
- DA (dopamine), brain ([3]; 25 mg/kg p.o., p <0.001): 1087 ± 29 ng/g
- 5-HT, brain ([3]; 25 mg/kg p.o., p <0.001): 1623 ± 48 ng/g
- 5HIAA, brain ([3]; 25 mg/kg p.o., p <0.005): 404 ± 12 ng/g
- DOPAC, brain ([3]; 25 mg/kg p.o., p <0.01): 54 ± 6 ng/g
- Norepinephrine (NE) concentrations, in words ([3]; 10 and 25 mg/kg dose): increased significantly
- dihydroxyphenylacetic acid in the brain, in words ([3]; following the 5 mg/kg dose): significant reductions
- dopamine in the brain, in words ([3]; following the 5 mg/kg dose): increases in dopamine
- selectivity of action, in words ([3]; lower doses (MAO-B) and higher doses (MAO-A)): selectivity of action against MAO-B at the lower doses and a small degree of MAO-A inhibition occurring at the higher doses
- Potentiation of heart rate response to p-tyramine ([4]; 10 mg/kg by mouth, in words): none
- cardiovascular responses to tyramine injected intravenously, in words ([4]; 10 mg/kg p.o. 18 h prior to testing): affected to only a small extent
- Potentiation of heart rate response to p-tyramine ([4]; 25 mg/kg by mouth): 2.8 fold
- potentiation of tyramine ([4]; 25 mg/kg, two experiments): 2-3 fold
- Potentiation of heart rate response to p-tyramine ([5]; 5 mg/kg by mouth): 1.5 fold
- Potentiation of heart rate response to p-tyramine ([5]; 10 mg/kg by mouth): 2.4 fold
- Potentiation of heart rate response to p-tyramine ([5]; 25 mg/kg by mouth): 2.0 fold
